# Assays:
# [1] = test system: Staphylococcus aureus (ATCC 6538); assay: Potentiation Assay (non-evaporative vs evaporative procedure); type: cell-based; settings: for Evaporated Log 10 Reduction: evaporated in centrifuge 60 minutes; for Non-evaporated Log 10 Reduction: set 60 minutes; for evaporative potentiation of antimicrobial efficacy: evaporative vs non-evaporative procedure, concentrations tested in water
# Method: Now referring primarily to Table 5 and FIG. […] The non-evaporative and evaporative procedures included 50 μL of an overnight Staphylococcus aureus (ATCC 6538, ˜10^9 CFU/mL) culture added to each 2 mL sterile plastic vial with a conical bottom and dried without capping in a centrifuge for 30 minutes. One hundred microliters of the solution being tested was added to each vial (as triplicate vials) either let set for 60 minutes (non-evaporative) or evaporated in a centrifuge for 60 minutes (evaporative), with time to evaporate being determined by each DAA mixtures own evaporative characteristic. To the non-evaporated vials, 400 μL Mueller Hinton Broth (MHB) was added to the vial and 100 μL was plated onto Nutrient agar (NA). To the evaporated vials, 500 μL of MHB was added and 100 μL was plated onto NA. Plates were incubated overnight at ˜37° C. and counted (the “Potentiation Assay”).
# [2] = neat substance; BuAc (reference) = 1.00; cited from earlier work
# [3] = Relative evaporation rates; type: physicochemical; settings: BuAc (reference) = 1.00
# Text: Line C represents the change in fluid volume of a 20% (v/v) solution of diacetone alcohol in water caused by evaporation (a particular embodiment of the inventive differential evaporation antimicrobial composition), while line D represents the change in fluid phase concentration of the same 20% (v/v) diacetone alcohol in water occurring during the same fluid volume change. In this case, complete evaporation can occur in approximately 75 time units. Comparatively, the 20% (v/v) diacetone alcohol in water can be engaged with a population of microorganisms for a greater duration of time than the conventional antimicrobial composition without reapplication of an additional amount because evaporation occurs at a slower rate as shown by Table 3.
# [4] = flash point; cited from earlier work
# [5] = Table 1; cited from earlier work
# [6] = 5% v/v active component, 95% water
# [7] = 10% v/v active component, 90% water
# [8] = 15% v/v active component, 85% water
SMILES,"Evaporated Log 10 Reduction [1, 6]","Non-evaporated Log 10 Reduction [1, 6]","Evaporated Log 10 Reduction [1, 7]","Non-evaporated Log 10 Reduction [1, 7]","Evaporated Log 10 Reduction [1, 8]","Non-evaporated Log 10 Reduction [1, 8]",evaporative potentiation of antimicrobial efficacy [1],also measured
"CN(C)CCO [DMEA, 2-dimethylaminoethanol]","XX (denotes a plate where the number of colonies represented less than 10% of the number of colonies counted in the corresponding positive control plate, representing a significant reduction of the number of microorganisms (>3 Log10 reduction).)","---0--- (denotes a plate where the numbers of colonies represented more than 50% of the number of colonies counted in the corresponding positive control plate, representing no significant reduction in the population of viable microorganisms (0 to 1 Log10 reduction).)","XXx (denotes a plate where the number of colonies represented less than 1% of the number of colonies counted in the corresponding positive control plate, representing nearly complete reduction of the number of microorganisms (>4 Log10 reduction).)","---0--- (denotes a plate where the numbers of colonies represented more than 50% of the number of colonies counted in the corresponding positive control plate, representing no significant reduction in the population of viable microorganisms (0 to 1 Log10 reduction).)","XXx (denotes a plate where the number of colonies represented less than 1% of the number of colonies counted in the corresponding positive control plate, representing nearly complete reduction of the number of microorganisms (>4 Log10 reduction).)","---0--- (denotes a plate where the numbers of colonies represented more than 50% of the number of colonies counted in the corresponding positive control plate, representing no significant reduction in the population of viable microorganisms (0 to 1 Log10 reduction).)",–,–
"CC(=O)OCCOC(C)=O [EGDA, ethylene glycol diethyl ester]","---0--- (denotes a plate where the numbers of colonies represented more than 50% of the number of colonies counted in the corresponding positive control plate, representing no significant reduction in the population of viable microorganisms (0 to 1 Log10 reduction).)","---0--- (denotes a plate where the numbers of colonies represented more than 50% of the number of colonies counted in the corresponding positive control plate, representing no significant reduction in the population of viable microorganisms (0 to 1 Log10 reduction).)","XX (denotes a plate where the number of colonies represented less than 10% of the number of colonies counted in the corresponding positive control plate, representing a significant reduction of the number of microorganisms (>3 Log10 reduction).)","---0--- (denotes a plate where the numbers of colonies represented more than 50% of the number of colonies counted in the corresponding positive control plate, representing no significant reduction in the population of viable microorganisms (0 to 1 Log10 reduction).)","XX (denotes a plate where the number of colonies represented less than 10% of the number of colonies counted in the corresponding positive control plate, representing a significant reduction of the number of microorganisms (>3 Log10 reduction).)","---0--- (denotes a plate where the numbers of colonies represented more than 50% of the number of colonies counted in the corresponding positive control plate, representing no significant reduction in the population of viable microorganisms (0 to 1 Log10 reduction).)",can be potentiated by evaporation,–
"CCCCOCCO [EGMBE, ethylene glycol monobutyl ether]",–,–,–,–,–,–,can be potentiated by evaporation,Relative Evaporation Rates [2]: 0.06; Relative Evaporation Rates (estimated) ([3]; 10% (v/v)): 0.33; Relative Evaporation Rates (estimated) ([3]; 20% (v/v)): 0.30
"COCCOC(C)=O [EGMEA, ethylene glycol monomethyl ether acetate]","---0--- (denotes a plate where the numbers of colonies represented more than 50% of the number of colonies counted in the corresponding positive control plate, representing no significant reduction in the population of viable microorganisms (0 to 1 Log10 reduction).)","---0--- (denotes a plate where the numbers of colonies represented more than 50% of the number of colonies counted in the corresponding positive control plate, representing no significant reduction in the population of viable microorganisms (0 to 1 Log10 reduction).)","---0--- (denotes a plate where the numbers of colonies represented more than 50% of the number of colonies counted in the corresponding positive control plate, representing no significant reduction in the population of viable microorganisms (0 to 1 Log10 reduction).)","---0--- (denotes a plate where the numbers of colonies represented more than 50% of the number of colonies counted in the corresponding positive control plate, representing no significant reduction in the population of viable microorganisms (0 to 1 Log10 reduction).)","XX (denotes a plate where the number of colonies represented less than 10% of the number of colonies counted in the corresponding positive control plate, representing a significant reduction of the number of microorganisms (>3 Log10 reduction).)","---0--- (denotes a plate where the numbers of colonies represented more than 50% of the number of colonies counted in the corresponding positive control plate, representing no significant reduction in the population of viable microorganisms (0 to 1 Log10 reduction).)",can be potentiated by evaporation,–
"CCO [Ethanol, reference compound]",–,–,–,–,–,–,–,FP [4]: 22 °C; Azeotrope with Water % v/v [5]: 94% v/v; Azeotrope with Water % w/w [5]: 95% w/w
"CCC(C)=NO [MEKO, 2-butanone oxime]",–,–,"XXX (denotes a plate in which zero colonies were present, representing complete reduction of the number of microorganisms (>5 Log10 reduction).)","XXX (denotes a plate in which zero colonies were present, representing complete reduction of the number of microorganisms (>5 Log10 reduction).)","XXX (denotes a plate in which zero colonies were present, representing complete reduction of the number of microorganisms (>5 Log10 reduction).)","XXX (denotes a plate in which zero colonies were present, representing complete reduction of the number of microorganisms (>5 Log10 reduction).)",can be potentiated by evaporation,–
CO [Methanol],–,–,–,–,–,–,–,FP [4]: 11 °C
O [water],–,–,–,–,–,–,–,Relative Evaporation Rates [2]: 0.36
